Source: patent US11052091B2, “BRK inhibitory compound” (ONO PHARMACEUTICAL CO., LTD., priority 2016, dated 2021)

Key:
Brk enzyme = Brk enzyme (Homo sapiens (Human), UniProt Q13882); assay: Measurement of Brk inhibitory activity (LanthaScreen TR-FRET); settings: read-out: Brk inhibitory activity (IC50)
Method: Measurement of an inhibitory activity on Brk enzyme was performed by using LanthaScreen (registered trademark) system (Invitrogen) in accordance with the attached manual. Reagents used are described below.
Reaction Buffer: A solution containing 50 mmol/L HEPES (pH 7.5), 0.01% Brij 35, 10 mmol/L MgCl2 and 1 mmol/L EGTA was prepared by using purified water.
A solution of a test substance (the compound of the present invention): A solution of each concentration of a test compound in DMSO was diluted 20-fold with Reaction Buffer, and a solution containing a test compound at a concentration 5 times a final concentration was prepared. An enzyme solution: A solution containing 480 ng/mL of Brk enzyme was prepared by using Reaction Buffer. […] A detection solution: A solution containing 20 mmol/L of EDTA and 4 nmol/L of PY20 (Invitrogen) was prepared by using Dilution B (Invitrogen).
To a 96-well plate (Nunc), a solution of 10 mmol/L of a test compound in DMSO was dispensed, and further, a dilution series at a common ratio of three was prepared by using DMSO. […] The phosphorylation of the artificial substrate was quantified by Time-Resolved Fluorescence Resonance Energy Transfer (TR-FRET). […]

p38α = p38α (Homo sapiens (Human), UniProt Q16539); assay: Enzyme inhibitory activity on kinases other than Brk (selectivity), p38α; assay type: biochemical; settings: compound concentration of 1 μmol/L; read-out: inhibition rates (%) p38α
Sequence of p38α (Q16539 whole entry): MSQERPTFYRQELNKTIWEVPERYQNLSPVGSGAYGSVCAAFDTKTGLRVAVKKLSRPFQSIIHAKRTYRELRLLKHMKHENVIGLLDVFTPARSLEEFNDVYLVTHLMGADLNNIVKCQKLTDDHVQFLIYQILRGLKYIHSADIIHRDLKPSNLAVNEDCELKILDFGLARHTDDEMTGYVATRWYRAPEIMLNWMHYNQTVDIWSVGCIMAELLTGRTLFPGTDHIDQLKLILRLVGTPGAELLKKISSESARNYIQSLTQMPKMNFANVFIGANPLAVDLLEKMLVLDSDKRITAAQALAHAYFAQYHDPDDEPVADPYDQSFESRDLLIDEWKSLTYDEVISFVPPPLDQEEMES
Method: The compound of the present invention was dissolved in DMSO to prepare a solution with a concentration of 100 times the test concentration of 1 μmol/L. The solution was further diluted 25-fold with Assay Buffer (20 mmol/L HEPES, 0.01% Triton X-100, 2 mmol/L DTT, pH 7.5) to give a test substance solution. With regard to a positive control substance, a solution of the positive control substance was prepared in a similar manner.
Five microliters of a test substance solution with a concentration of four times prepared by using Assay Buffer, 5 μL of a solution of a substrate/ATP/a metal (Mg) with a concentration of four times and 10 μL of a solution of kinase with a concentration of two times were mixed in a well of a 384-well plate made of polypropylene, and the mixture was subjected to a reaction at room temperature for 1 hour. To the mixture, 60 μL of Termination Buffer (QuickScout Screening Assist MSA; Cama Biosciences, Inc.) was added to stop the reaction. The substrate peptide and the phosphorylated peptide in the reaction solution were separated, and were quantified. The kinase reaction was evaluated by a product ratio (P/(P+S)) calculated from a peak height (S) of the substrate peptide and a peak height (P) of the phosphorylated peptide. As other kinases, kinase selectivity experiments were performed using, for example, the p38α and Syk kinases. […]

Sequence of Brk enzyme (Q13882 whole entry): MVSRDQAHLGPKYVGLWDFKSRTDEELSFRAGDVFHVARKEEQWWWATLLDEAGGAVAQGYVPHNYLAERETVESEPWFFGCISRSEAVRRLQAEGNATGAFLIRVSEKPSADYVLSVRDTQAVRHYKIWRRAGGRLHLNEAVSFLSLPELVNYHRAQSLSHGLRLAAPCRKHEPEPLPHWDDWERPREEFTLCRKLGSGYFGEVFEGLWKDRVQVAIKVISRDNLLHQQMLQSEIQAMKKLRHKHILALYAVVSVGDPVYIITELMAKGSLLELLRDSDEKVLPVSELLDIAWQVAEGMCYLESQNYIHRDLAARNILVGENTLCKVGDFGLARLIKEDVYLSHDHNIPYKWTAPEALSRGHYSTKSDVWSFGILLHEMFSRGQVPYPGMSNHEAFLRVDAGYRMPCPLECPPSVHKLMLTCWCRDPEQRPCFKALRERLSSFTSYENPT

Compound: 6-amino-2-{[2-difluoro-4-(methylsulfonyl)phenyl]amino}-7-(7-fluoro-1H-indazol-4-yl)-9-isopropyl-7,9-dihydro-8H-purin-8-one [Example 5-11]
- IC50 (Brk enzyme): 22 nM

Compound: CC(C)n1c(=O)n(-c2ccc(F)c3[nH]ncc23)c2c(N)nc(Nc3ccc(S(C)(=O)=O)cc3F)nc21 [Example 3, 6-amino-7-(7-fluoro-1H-indazol-4-yl)-2-{[2-fluoro-4-(methylsulfonyl)phenyl]amino}-9-isopropyl-7,9-dihydro-8H-purin-8-one]
- inhibition at 1 µM (p38α): ≤ 24%
